From PubChem BioAssay (NCI)
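Each compound was tested at five concentrations against cells in 96-well plates for 48 hours. Here, GI50 denotes the concentration required for 50% inhibition of growth. At the TGI there is no net growth.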

Legend:
Experiment in all cases: NCI anticancer screen, dose series, 48 h
BT-549 breast = test system: BT-549 breast
EKVX NSCLC = test system: EKVX NSCLC
MALME-3M melanoma = test system: MALME-3M melanoma
HT29 colon = test system: HT29 colon
SNB-75 CNS = test system: SNB-75 CNS
SF-295 CNS = test system: SF-295 CNS
UACC-62 melanoma = test system: UACC-62 melanoma
T-47D breast = test system: T-47D breast
M14 melanoma = test system: M14 melanoma
RPMI-8226 leukemia = test system: RPMI-8226 leukemia
NCI/ADR-RES ovarian = test system: NCI/ADR-RES ovarian
A498 renal = test system: A498 renal
MCF7 breast = test system: MCF7 breast
OVCAR-3 ovarian = test system: OVCAR-3 ovarian
HOP-92 NSCLC = test system: HOP-92 NSCLC
OVCAR-8 ovarian = test system: OVCAR-8 ovarian
KM12 colon = test system: KM12 colon
786-0 renal = test system: 786-0 renal
CAKI-1 renal = test system: CAKI-1 renal
HL-60(TB) leukemia = test system: HL-60(TB) leukemia
SW-620 colon = test system: SW-620 colon
LOX IMVI melanoma = test system: LOX IMVI melanoma
SK-MEL-5 melanoma = test system: SK-MEL-5 melanoma
SNB-19 CNS = test system: SNB-19 CNS
ACHN renal = test system: ACHN renal
HS 578T breast = test system: HS 578T breast
K-562 leukemia = test system: K-562 leukemia
TK-10 renal = test system: TK-10 renal
U251 CNS = test system: U251 CNS
SN12C renal = test system: SN12C renal
UO-31 renal = test system: UO-31 renal
HCT-15 colon = test system: HCT-15 colon
SK-MEL-2 melanoma = test system: SK-MEL-2 melanoma
HCT-116 colon = test system: HCT-116 colon
DU-145 prostate = test system: DU-145 prostate
PC-3 prostate = test system: PC-3 prostate
HCC-2998 colon = test system: HCC-2998 colon
UACC-257 melanoma = test system: UACC-257 melanoma
MOLT-4 leukemia = test system: MOLT-4 leukemia
OVCAR-5 ovarian = test system: OVCAR-5 ovarian
MDA-MB-435 = test system: MDA-MB-435
RXF 393 renal = test system: RXF 393 renal
NCI-H460 lung = test system: NCI-H460 lung
COLO 205 colon = test system: COLO 205 colon
OVCAR-4 ovarian = test system: OVCAR-4 ovarian
MDA-MB-231 breast = test system: MDA-MB-231 breast
SK-OV-3 ovarian = test system: SK-OV-3 ovarian
SF-268 CNS = test system: SF-268 CNS
SF-539 CNS = test system: SF-539 CNS
CCRF-CEM leukemia = test system: CCRF-CEM leukemia
NCI-H23 lung = test system: NCI-H23 lung
HOP-62 NSCLC = test system: HOP-62 NSCLC
NCI-H522 lung = test system: NCI-H522 lung
NCI-H226 lung = test system: NCI-H226 lung

CCn1cc(C(=O)N/N=C/c2ccc(Br)cc2)c(=O)c2cc(F)c(N3CCNC(C)C3)c(F)c21 (stereo not drawn)
GI50 (BT-549 breast): 1590 nM
TGI (BT-549 breast): 3230 nM
GI50 (EKVX NSCLC): 1590 nM
TGI (EKVX NSCLC): 3110 nM
GI50 (MALME-3M melanoma): 1780 nM
TGI (MALME-3M melanoma): 3420 nM
GI50 (HT29 colon): 1680 nM
TGI (HT29 colon): 3180 nM
GI50 (SNB-75 CNS): 1570 nM
TGI (SNB-75 CNS): 2990 nM
GI50 (SF-295 CNS): 1850 nM
TGI (SF-295 CNS): 3510 nM
GI50 (UACC-62 melanoma): 1880 nM
TGI (UACC-62 melanoma): 3360 nM
GI50 (T-47D breast): 1650 nM
TGI (T-47D breast): 3470 nM
GI50 (M14 melanoma): 1910 nM
TGI (M14 melanoma): 3590 nM
GI50 (RPMI-8226 leukemia): 1850 nM
TGI (RPMI-8226 leukemia): 3820 nM
GI50 (NCI/ADR-RES ovarian): 1950 nM
TGI (NCI/ADR-RES ovarian): 3690 nM
GI50 (A498 renal): 1780 nM
TGI (A498 renal): 5300 nM
GI50 (MCF7 breast): 1560 nM
TGI (MCF7 breast): 3130 nM
GI50 (OVCAR-3 ovarian): 1790 nM
TGI (OVCAR-3 ovarian): 3380 nM
GI50 (HOP-92 NSCLC): 1210 nM
TGI (HOP-92 NSCLC): 2580 nM
GI50 (OVCAR-8 ovarian): 1740 nM
TGI (OVCAR-8 ovarian): 3320 nM
GI50 (KM12 colon): 1860 nM
TGI (KM12 colon): 3500 nM
GI50 (786-0 renal): 1680 nM
TGI (786-0 renal): 3210 nM
GI50 (CAKI-1 renal): 1680 nM
TGI (CAKI-1 renal): 3080 nM
GI50 (HL-60(TB) leukemia): 1880 nM
TGI (HL-60(TB) leukemia): 3800 nM
GI50 (SW-620 colon): 1710 nM
TGI (SW-620 colon): 3180 nM
GI50 (LOX IMVI melanoma): 1750 nM
TGI (LOX IMVI melanoma): 3250 nM
GI50 (SK-MEL-5 melanoma): 1940 nM
TGI (SK-MEL-5 melanoma): 4030 nM
GI50 (SNB-19 CNS): 1700 nM
TGI (SNB-19 CNS): 3080 nM
GI50 (ACHN renal): 1690 nM
TGI (ACHN renal): 3060 nM
GI50 (HS 578T breast): 1990 nM
TGI (HS 578T breast): 5900 nM
GI50 (K-562 leukemia): 1500 nM
TGI (K-562 leukemia): 3170 nM
GI50 (TK-10 renal): 1740 nM
TGI (TK-10 renal): 3170 nM
GI50 (U251 CNS): 1660 nM
TGI (U251 CNS): 3120 nM
GI50 (SN12C renal): 1570 nM
TGI (SN12C renal): 3010 nM
GI50 (UO-31 renal): 1560 nM
TGI (UO-31 renal): 2920 nM
GI50 (HCT-15 colon): 1440 nM
TGI (HCT-15 colon): 2930 nM
GI50 (SK-MEL-2 melanoma): 2020 nM
TGI (SK-MEL-2 melanoma): 4100 nM
GI50 (HCT-116 colon): 1540 nM
TGI (HCT-116 colon): 3160 nM
GI50 (DU-145 prostate): 1740 nM
TGI (DU-145 prostate): 3180 nM
GI50 (PC-3 prostate): 1620 nM
TGI (PC-3 prostate): 3140 nM
GI50 (HCC-2998 colon): 1880 nM
TGI (HCC-2998 colon): 3570 nM
GI50 (UACC-257 melanoma): 1680 nM
TGI (UACC-257 melanoma): 3210 nM
GI50 (MOLT-4 leukemia): 1680 nM
TGI (MOLT-4 leukemia): 3470 nM
GI50 (OVCAR-5 ovarian): 1730 nM
TGI (OVCAR-5 ovarian): 3220 nM
GI50 (MDA-MB-435): 1730 nM
TGI (MDA-MB-435): 3150 nM
GI50 (RXF 393 renal): 1630 nM
TGI (RXF 393 renal): 3070 nM
GI50 (NCI-H460 lung): 1610 nM
TGI (NCI-H460 lung): 3160 nM
GI50 (COLO 205 colon): 1760 nM
TGI (COLO 205 colon): 3420 nM
GI50 (OVCAR-4 ovarian): 2480 nM
TGI (OVCAR-4 ovarian): 7540 nM
GI50 (MDA-MB-231 breast): 1840 nM
TGI (MDA-MB-231 breast): 3370 nM
GI50 (SK-OV-3 ovarian): 1930 nM
TGI (SK-OV-3 ovarian): 3680 nM
GI50 (SF-268 CNS): 1780 nM
TGI (SF-268 CNS): 3450 nM
GI50 (SF-539 CNS): 1690 nM
TGI (SF-539 CNS): 3100 nM
GI50 (CCRF-CEM leukemia): 1490 nM
TGI (CCRF-CEM leukemia): 3520 nM
GI50 (NCI-H23 lung): 1840 nM
TGI (NCI-H23 lung): 3540 nM
GI50 (HOP-62 NSCLC): 1720 nM
TGI (HOP-62 NSCLC): 3170 nM
GI50 (NCI-H522 lung): 1850 nM
TGI (NCI-H522 lung): 3550 nM
GI50 (NCI-H226 lung): 2150 nM
TGI (NCI-H226 lung): 6130 nM
